# Legend:
# SK-MEL-28 tumor cells = experiment: Method C: Cell Growth Inhibition Assay (CellTiter-Glo), SK-MEL-28; assay type: cell-based; conditions: Homo sapiens, SK-MEL-28, 72 h, 3 days, 4-parameter fit
# How it was run: (§1)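 Cells plated at 500 cells/well, dosed next day with 10-point 1:3 dilution series (0.2% final DMSO) and grown 3 days at 37 °C, 5% CO2. CellTiter-Glo luminescence (total ATP) served as cell-number surrogate; inhibition relative to DMSO controls, IC50 interpolated by 4-parameter fit.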
# HN5 tumor cells = experiment: Method C: Cell Growth Inhibition Assay (CellTiter-Glo), HN5; assay type: cell-based; conditions: Homo sapiens, 72 h, 3 days, 4-parameter fit
# How it was run: as §1
IC50 (SK-MEL-28 tumor cells) [nM],IC50 (HN5 tumor cells) [nM],Compound
> 1000,100 to 1000,"Nc1nc(-c2cccc(C(=O)Nc3c(F)cccc3F)c2)c(-c2ccnc(Nc3cccc(CN4CCCC4)c3)n2)s1 [Example 77, 3-[2-Amino-5-(2-{[3-(1-pyrrolidinylmethyl)phenyl]amino}-4-pyrimidinyl)-1,3-thiazol-4-yl]-N-(2,6-difluorophenyl)benzamide]"
> 1000,100 to 1000,"CCc1nc(-c2cccc(NC(=O)c3c(F)cccc3F)c2)c(-c2ccnc(Nc3cccc(CN4CCCC4)c3)n2)s1 [Example 115, N-{3-[2-Ethyl-5-(2-{[3-(1-pyrrolidinylmethyl)phenyl]amino}-4-pyrimidinyl)-1,3-thiazol-4-yl]phenyl}-2,6-difluorobenzamide]"
,> 1000,"Cc1cc(-c2sc(N)nc2-c2cccc(NC(=O)c3c(F)cccc3F)c2)nc(Nc2cccc(F)c2)n1 [Example 48, N-[3-(2-Amino-5-{2-[(3-fluorophenyl)amino]-6-methyl-4-pyrimidinyl}-1,3-thiazol-4-yl)phenyl]-2,6-difluorobenzamide]"
> 1000,,Cc1nc(-c2cccc(NC(=O)c3c(F)cccc3F)c2)c(-c2ccnc(Nc3ccc(OC4CCN(C(=O)OCc5ccccc5)CC4)c(F)c3)n2)s1 [Example 106]
> 1000,,"COc1ccc(Nc2nccc(-c3sc(N)nc3-c3cccc(NC(=O)c4c(F)cccc4F)c3)n2)cc1N1CCNCC1 [Example 18, N-[3-(2-Amino-5-{2-[(4-methoxy-3-piperaziN-1-ylphenyl)amino]pyrimidiN-4-yl}-1,3-thiazol-4-yl)phenyl]-2,6-difluorobenzamide]"

# More lines, now with the values behind:
Compound,IC50 (SK-MEL-28 tumor cells) [nM],IC50 (HN5 tumor cells) [nM]
"COc1cc(Nc2nccc(-c3sc(N)nc3-c3cccc(NC(=O)c4c(F)cccc4F)c3)n2)cc(OC)c1OC [Example 16, N-[3-(2-Amino-5-{2-[(3,4,5-trimethoxyphenyl)amino]pyrimidiN-4-yl}-1,3-thiazol-4-yl)phenyl]-2,6-difluorobenzamide]",,< 100
Cc1nc(-c2cccc(NC(=O)c3cc(F)ccc3F)c2)c(-c2ccnc(Nc3ccc(OCCN(C)C)c(Cl)c3)n2)o1 [Example 142],> 1000,100 to 1000
"Cc1nc(-c2cccc(NC(=O)c3c(F)cccc3F)c2)c(-c2ccnc(Nc3ccc(OCCN(C)C)c(Cl)c3)n2)s1 [Example 103, N-[3-(5-{2-[(3-Chloro-4-{[2-(dimethylamino)ethyl]oxy}phenyl)amino]-4-pyrimidinyl}-2-methyl-1,3-thiazol-4-yl)phenyl]-2,6-difluorobenzamide]",> 1000,< 100
"CCNc1nc(-c2cccc(NC(=O)C3CC3)c2)c(-c2ccnc(Nc3ccc(OCCN4CCCC4)c(Cl)c3)n2)s1 [Example 63, N-{3-[5-{2-[(3-Chloro-4-{[2-(1-pyrrolidinyl)ethyl]oxy}phenyl)amino]-4-pyrimidinyl}-2-(ethylamino)-1,3-thiazol-4-yl]phenyl}cyclopropanecarboxamide]",> 1000,100 to 1000

# Reference: patent US20110098296A1, “Thiazole And Oxazole Kinase Inhibitors” (priority 2007, published 2011)
